{"source": "patent US6828315B1", "about": "“1-Amino triazoloc4,3-a! quinazoline-5-ones and/or -5-thiones inhibiting phosphodiesterase IV” (Warner-Lambert LLC, priority 1999, dated 2004)"}
{"smiles": "O=c1nc2n(Cc3ccc(Cl)cc3)nc(N3CCCCCC3)n2c2ccc(Cl)cc12", "note": "[Compound 115, 1-(azepan-1-yl)-7-chloro-3-(4-chlorobenzyl)-3H-[1,2,4]triazolo[4,3-a]quinazolin-5-one]", "values": [{"measurement": "melting point", "value": 245, "unit": "°C"}]}
{"smiles": "O=c1nc2n(Cc3ccc(Br)cc3)nc(N3CCCCCC3)n2c2ccc(Cl)cc12", "note": "[Compound 116, 1-(azepan-1-yl)-7-chloro-3-(4-bromobenzyl)-3H-[1,2,4]triazolo(4,3-a]quinazolin-5-one]", "values": [{"measurement": "melting point", "value": 244, "unit": "°C"}]}
{"smiles": "O=c1nc2n(Cc3ccc(F)cc3)nc(N3CCCCCC3)n2c2ccc(Cl)cc12", "note": "[Compound 117, 1-(azepan-1-yl)-7-chloro-3-(4-fluorobenzyl)-3H-[1,2,4)triazolo[4,3-a]quinazolin-5-one]", "values": [{"measurement": "melting point", "value": 224, "unit": "°C"}]}
{"smiles": "O=c1nc2n(Cc3ccc(C(F)(F)F)cc3)nc(N3CCCCCC3)n2c2ccc(Cl)cc12", "note": "[Compound 118, 1-(azepan-1-yl)-7-chloro-3-(4-(trifluoromethyl)benzyl)-3H-[1,2,4]triazolo[4,3-a]quinazolin-5-one]", "values": [{"measurement": "melting point", "value": 232, "unit": "°C"}]}
{"smiles": "N#Cc1ccc(Cn2nc(N3CCCCCC3)n3c4ccc(Cl)cc4c(=O)nc23)cc1", "note": "[Compound 119, 1-(azepan-1-yl)-7-chloro-3-(4-cyanobenzyl)-3H-[1,2,4]triazolo[4,3-a]quinazolin-5-one]", "values": [{"measurement": "melting point", "value": "> 260", "unit": "°C"}]}
{"smiles": "COc1ccccc1Cn1nc(N2CCCCCC2)n2c3ccc(Cl)cc3c(=O)nc12", "note": "[Compound 120, 1-(azepan-1-yl)-7-chloro-3-(2-methoxybenzyl)-3H-[1,2,4]triazolo[4,3-a]quinazolin-5-one]", "values": [{"measurement": "melting point", "value": 184, "unit": "°C"}]}
{"smiles": "COc1cccc(Cn2nc(N3CCCCCC3)n3c4ccc(Cl)cc4c(=O)nc23)c1", "note": "[Compound 121, 1-(azepan-1-yl)-7-chloro-3-(3-methoxybenzyl)-3H-[1,2,4]triazolo[4,3-a]quinazolin-5-one]", "values": [{"measurement": "melting point", "value": 163, "unit": "°C"}]}
{"smiles": "COc1ccc(Cn2nc(N3CCCCCC3)n3c4ccc(Cl)cc4c(=O)nc23)cc1", "note": "[Compound 122, 1-(azepan-1-yl)-7-chloro-3-(4-methoxybenzyl)-3H-[1,2,4]triazolo[4,3-a]quinazolin-5-one]", "values": [{"measurement": "melting point", "value": "164 to 165", "unit": "°C"}]}
{"smiles": "O=c1nc2n(Cc3ccc(Cl)c(Cl)c3)nc(N3CCCCCC3)n2c2ccc(Cl)cc12", "note": "[Compound 123, 1-(azepan-1-yl)-7-chloro-3-(3,4-dichlorobenzyl)-3H-[1,2,4]triazolo[4,3-a]quinazolin-5-one]", "values": [{"measurement": "melting point", "value": 212, "unit": "°C"}]}
{"smiles": "COc1ccc(Cn2nc(N3CCCCCC3)n3c4ccc(Cl)cc4c(=O)nc23)cc1OC", "note": "[Compound 124, 1-(azepan-1-yl)-7-chloro-3-(3,4-dimethoxybenzyl)-3H-[1,2,4]triazolo[4,3-a]quinazolin-5-one]", "values": [{"measurement": "melting point", "value": 153, "unit": "°C"}]}
{"smiles": "O=c1nc2n(Cc3ccccn3)nc(N3CCCCCC3)n2c2ccc(Cl)cc12", "note": "[Compound 125, 1-(azepan-1-yl)-7-chloro-3-(2-pyridylmethyl)-3H-[1,2,4]triazolo[4,3-a]quinazolin-5-one]", "values": [{"measurement": "melting point", "value": 153, "unit": "°C"}]}
{"smiles": "O=c1nc2n(Cc3cccnc3)nc(N3CCCCCC3)n2c2ccc(Cl)cc12", "note": "[Compound 126, 1-(azepan-1-yl)-7-chloro-3-(3-pyridylmethyl)-3H-[1,2,4]triazolo[4,3-a]quinazolin-5-one]", "values": [{"measurement": "melting point", "value": 184, "unit": "°C"}]}
{"smiles": "COc1ccc(CCn2nc(N3CCCCCC3)n3c4ccc(Cl)cc4c(=O)nc23)cc1", "note": "[Compound 128, 1-(azepan-1-yl)-7-chloro-3-[2-(4-methoxyphenyl)ethyl)-3H-[1,2,4]triazolo[4,3-a]quinazolin-5-one]", "values": [{"measurement": "melting point", "value": 196, "unit": "°C"}]}
{"smiles": "O=c1nc2n(CCCc3ccccc3)nc(N3CCCCCC3)n2c2ccc(Cl)cc12", "note": "[Compound 129, 1-(azepan-1-yl)-7-chloro-3-(3-phenylpropyl)-3H-[1,2,4]triazolo[4,3-a]quinazolin-5-one]", "values": [{"measurement": "melting point", "value": 130, "unit": "°C"}]}
{"smiles": "O=C(Cn1nc(N2CCCCCC2)n2c3ccc(Cl)cc3c(=O)nc12)c1ccccc1", "note": "[Compound 130, 1-Azepan-1-yl-7-chloro-3-(2-oxo-2-phenyl-ethyl)3H-[1,2,4]triazolo[4,3-a]quinazolin-5-one]", "values": [{"measurement": "melting point", "value": "230 to 232", "unit": "°C"}]}
{"smiles": "COc1ccc(C(=O)Cn2nc(N3CCCCCC3)n3c4ccc(Cl)cc4c(=O)nc23)cc1", "note": "[Compound 131, 1-(azepan-1-yl)-7-chloro-3-(2-(4-methoxyphenyl)-2-oxoethyl]-3H-[1,2,4]triazolo[4,3-a]quinazolin-5-one]", "values": [{"measurement": "melting point", "value": 238, "unit": "°C"}]}
{"smiles": "O=C(Cn1nc(N2CCCCCC2)n2c3ccc(Cl)cc3c(=O)nc12)c1ccc(Cl)cc1", "note": "[Compound 132, 1-(azepan-1-yl)-7-chloro-3-[2-(4-chlorophenyl)-2-oxoethyl)-3H-[1,2,4]triazolo[4,3-a]quinazolin-5-one]", "values": [{"measurement": "melting point", "value": 238, "unit": "°C"}]}
{"smiles": "COC(=O)c1cc(C(=O)Cn2nc(N3CCCCCC3)n3c4ccc(Cl)cc4c(=O)nc23)ccc1OC", "note": "[Compound 133, 5-[(1-(azepan-1-yl)-7-chloro-5-oxo-5H-[1,2,4]triazolo[4,3-a]-quinazolin-3-yl)acetyl]-2-methoxybenzoic acid methyl ester]", "values": [{"measurement": "melting point", "value": 136, "unit": "°C"}]}
{"smiles": "O=c1nc2n(Cc3ccc(Cl)cc3)nc(N3CCCCCC3)n2c2ccc(Br)cc12", "note": "[Compound 134, 1-(azepan-1-yl)-7-bromo-3-(4-chlorobenzyl)-3H-[1,2,4]triazolo[4,3-a]quinazolin-5-one]", "values": [{"measurement": "melting point", "value": 247, "unit": "°C"}]}
{"smiles": "O=c1nc2n(Cc3ccc(F)cc3)nc(N3CCCCCC3)n2c2ccc(Br)cc12", "note": "[Compound 135, 1-(azepan-1-yl)-7-bromo-3-(4-fluorobenzyl)-3H-[1,2,4]triazolo[4,3-a]quinazolin-5-one]", "values": [{"measurement": "melting point", "value": 216, "unit": "°C"}]}
{"smiles": "N#Cc1ccc(Cn2nc(N3CCCCCC3)n3c4ccc(Br)cc4c(=O)nc23)cc1", "note": "[Compound 136, 4(1-(azepan-1-yl)-7-bromo-5-oxo-5H-[1,2,4]triazolo[4,3-a]-quinazolin-3-ylmethyl)-benzonitrile]", "values": [{"measurement": "melting point", "value": 293, "unit": "°C"}]}
{"smiles": "COc1ccc(Cn2nc(N3CCCCCC3)n3c4ccc(Br)cc4c(=O)nc23)cc1OC", "note": "[Compound 137, 1-(azepan-1-yl)-7-bromo-3-(3,4dimethoxybenzyl)-3H-[1,2,4]triazolo[4,3-a]quinazolin-5-one]", "values": [{"measurement": "melting point", "value": 174, "unit": "°C"}]}
{"smiles": "O=C(O)Cc1ccc(Cn2nc(N3CCCCCC3)n3c4ccc(Br)cc4c(=O)nc23)cc1", "note": "[Compound 138, [4-(7-Bromo-5-oxo-1-perhydro-azepin-1-yl-5H-[1,2,4]triazolo[4,3-a]quinazolin-3-ylmethyl)-phenyl]-acetic acid]", "values": [{"measurement": "melting point", "value": 269, "unit": "°C"}]}
{"smiles": "O=c1nc2n(Cc3cccnc3)nc(N3CCCCCC3)n2c2ccc(Br)cc12", "note": "[Compound 139, 1-(azepan-1-yl)-7-bromo-3-(pyridin-3-ylmethyl)-3H-[1,2,4]triazolo[4,3-a]quinazolin-5-one]", "values": [{"measurement": "melting point", "value": 192, "unit": "°C"}]}
{"smiles": "O=c1nc2n(C/C=C/c3ccccc3)nc(N3CCCCCC3)n2c2ccc(Br)cc12", "note": "[Compound 140, 1-Azepan-1-yl-7-bromo-3-((E)-3-phenyl-allyl)-3H-[1,2,4]triazolo(4,3-a]quinazolin-5-one]", "values": [{"measurement": "melting point", "value": 198, "unit": "°C"}]}
{"smiles": "O=c1nc2n(C/C=C/c3ccccc3)nc(N3CCCCC3)n2c2ccc(Br)cc12", "note": "[Compound 141, 7-Bromo-3-((E)-3-phenyl-allyl)-1-piperidin-1-yl-3H-[1,2,4]triazolo[4,3-a]quinazolin-5one]", "values": [{"measurement": "melting point", "value": 187, "unit": "°C"}]}
{"smiles": "O=c1nc2n(Cc3ccc(F)cc3)nc(N3CCCC3)n2c2ccc(Br)cc12", "note": "[Compound 143, 7-bromo-3-(4-fluorobenzyl)-1-(pyrrolidin-1-yl)-3H-[1,2,4]triazolo[4,3-a]quinazolin-5-one]", "values": [{"measurement": "melting point", "value": 233, "unit": "°C"}]}
{"smiles": "N#Cc1ccc(Cn2nc(N3CCCC3)n3c4ccc(Br)cc4c(=O)nc23)cc1", "note": "[Compound 144, 4-(7-bromo-5-oxo-1-(pyrrolidin-1-yl)-5H-[1,2,4]triazolo[4,3-a]-quinazolin-3-ylmethyl)-benzonitrile]", "values": [{"measurement": "melting point", "value": 222, "unit": "°C"}]}
{"smiles": "COC(=O)c1ccc(Cn2nc(N3CCCC3)n3c4ccc(Br)cc4c(=O)nc23)cc1", "note": "[Compound 145, 4-(7-bromo-5-oxo-1-(pyrrolidin-1-yl)-5H-[1,2,4]triazolo[4,3-a]-quinazolin-3-ylmethyl)benzoic acid methyl ester]", "values": [{"measurement": "melting point", "value": 193, "unit": "°C"}]}
{"smiles": "COc1ccc(Cn2nc(N3CCCC3)n3c4ccc(Br)cc4c(=O)nc23)cc1", "note": "[Compound 146, 7-Bromo-3-(4-methoxy-benzyl)-1-pyrrolidin-1-yl-3H-[1,2,4]triazolo[4,3-a]quinazolin-5-one]", "values": [{"measurement": "melting point", "value": 164, "unit": "°C"}]}
{"smiles": "CC(=O)Oc1ccc(Cn2nc(N3CCCC3)n3c4ccc(Br)cc4c(=O)nc23)cc1", "note": "[Compound 147, Acetic acid 4-(7-bromo-5-oxo-1-pyrrolidin-1-yl-5H-[1,2,4]triazolo[4,3-a]quinazolin-3-ylmethyl)phenyl ester]", "values": [{"measurement": "melting point", "value": 199, "unit": "°C"}]}
{"smiles": "CN(C)c1nn(Cc2ccc(O)cc2)c2nc(=O)c3cc(Br)ccc3n12", "note": "[Compound 148, 7-Bromo-1-dimethylamino-3-(4-hydroxy-benzyl)-3H-[1,2,4)triazolo[4,3-a]quinazolin-5-one]", "values": [{"measurement": "melting point", "value": 283, "unit": "°C"}]}
{"smiles": "COc1cc(Cn2nc(N3CCCC3)n3c4ccc(Br)cc4c(=O)nc23)cc(OC)c1", "note": "[Compound 150, 7-bromo-3-(3,5-dimethoxy-benzyl)-1-(pyrrolidin-1-yl)-3H-[1,2,4]triazolo-[4,3-a]quinazolin-5-one]", "values": [{"measurement": "melting point", "value": 168, "unit": "°C"}]}
{"smiles": "COc1cc(Cn2nc(N3CCCC3)n3c4ccc(Br)cc4c(=O)nc23)cc(OC)c1OC", "note": "[Compound 151, 7-bromo-1-(pyrrolidin-1-yl)-3-(3,4,5-trimethoxybenzyl)-3H-[1,2,4]triazolo[4,3-a]quinazolin-5-one]", "values": [{"measurement": "melting point", "value": "199 to 201", "unit": "°C"}]}
{"smiles": "CCCCn1nc(N2CCCC2)n2c3ccc(Br)cc3c(=O)nc12", "note": "[Compound 153, 7-bromo-3-(n-butyl)-1-(pyrrolidin-1-yl)-3H-[1,2,4]triazolo[4,3-a]-quinazolin-5-one]", "values": [{"measurement": "melting point", "value": 130, "unit": "°C"}]}
{"smiles": "COC(=O)C(c1ccccc1)n1nc(N2CCCC2)n2c3ccc(Br)cc3c(=O)nc12", "note": "(stereo not shown) [Compound 154, (7-Bromo-5oxo-1-pyrrolidin-1-yl-5H-[1,2,4]triazolo[4,3-a]quinazolin-3-yl)-phenyl-acetic acid methyl ester]", "values": [{"measurement": "melting point", "value": 187, "unit": "°C"}]}
{"smiles": "CN(C)c1nn(CC=Cc2ccccc2)c2nc(=O)c3cc(Br)ccc3n12", "note": "[Compound 155, 7-Bromo-1-dimethylamino-3-(3-phenyl-allyl)-3H-[1,2,4]triazolo[4,3-a]quinazolin-5-one]", "values": [{"measurement": "melting point", "value": 206, "unit": "°C"}]}
